Laboratory results as given in article PMC5207512, “Inhibition of Helicobacter pylori and Its Associated Urease by Palmatine: Investigation on the Potential Mechanism” (PLoS ONE, 2017).
“And” between values parts separate entries of the source, which are not always exact repeats. Equal entries are not always repeated. Where two headings read alike, the source gives them in different places.

What was measured:
[1] = target: T1, H. pylori urease (HPU) (Helicobacter pylori, UniProt P69996); experiment: biochemical; format: biochemical
T1 construct: HPU was prepared as previously described; made in house
Experimental: (§1) For the protection with inorganic compounds (BA and NaF), 0.25 mg/mL urease (HPU or JBU) was preincubated with 5 mM BA or 5 mM NaF for 20 min. Following preincubation, each sample of the protected urease was incubated with 0.5 mM Pal for 20 min. The samples containing a proper volume of respective buffer instead of Pal served as comparison with the abovementioned systems. The experiments were triply performed.

[2] = target: T2, jack bean urease (JBU) (Canavalia ensiformis, UniProt P07374); experiment: biochemical; format: biochemical
T2 construct: Urease from jack bean (Canavalia ensiformis, JBU); purchased Sigma-Aldrich (St Louis, MO, USA) type III (catalogue number not given)
Experimental: as §1

[3] = system: four H. pylori strains (ATCC 43504, NCTC 26695, SS1 and ICDC 111001); experiment: MIC by agar dilution method, range over the four strains; format: cell-based; conditions: Helicobacter pylori, read-out: MIC values against the four H. pylori strains
Experimental: A total of four H. pylori strains were studied, including three reference strains ATCC 43504, NCTC 26695 and SS1 gifted from Professor Richard Ferrero, Monash University, Australia, and one clinical isolate ICDC 111001 obtained from Professor Zhang Jianzhong, Chinese Center of Disease Control and Prevention. […] The MICs of Pal against the four H. pylori strains were evaluated by using agar dilution method. […] H. pylori strains were harvested and resuspended in PBS (1.0–2.0 McFarland were defined based on the strain properties). […] After 72 h, the MIC values were determined as the lowest concentration at which there was no strain growth judged by visual examination. Metronidazole was used as the positive control. The experiments were evaluated under two different pH (7.4 and 5.3) conditions and repeated twice.

[4] = target: T1, H. pylori urease (HPU); experiment: biochemical; format: biochemical; conditions: read-out: Residual urease activity (percent of control), Fig 5A HPU, thiols 1.25 mM, Pal 0.5 mM, 20+20 min
Experimental: (§2) The reaction mixture consisted of 0.25 mg/mL HPU or JBU, 0.5 mM Pal (for both HPU and JBU), and 1.25 mM thiols (DTT, GSH, or L-cys) in 20 mM HEPES buffer (pH 7.5). The components of the incubation mixture were mixed according to three procedures: (1) Urease was added to the mixture after a 20-min co-incubation of Pal with thiol. (2) Pal was added to the mixture after a 20-min co-incubation of urease with thiol. (3) Thiols were added to the mixture after a 20-min co-incubation of urease with Pal. The incubation mixture containing all components was incubated for further 20 min and the activity of urease was determined. The experiments were triply performed.

[5] = target: T2, jack bean urease (JBU); experiment: biochemical; format: biochemical; conditions: read-out: Residual urease activity (percent of control), Fig 5B JBU, thiols 1.25 mM, Pal 0.5 mM, 20+20 min
Experimental: as §2

[6] = target: T2, jack bean urease (JBU); experiment: Urease inhibition test (modified Berthelot method); format: biochemical
Experimental: HPU was prepared as previously described. The standard urease assay mixture included 150 mM urea in 20 mM HEPES buffer (pH 7.5). After addition of small aliquots of enzyme-containing solution of urease, the assay ran for 20 min. The enzymatic activity was evaluated spectrophotometrically by detecting the ammonia concentration at 595 nm according to the modified Berthelot (phenol-hypochlorite) method. Urease activity was estimated with JBU as a standard, the specific activity of HPU was determined to be 17.0 U/mg. One unit of urease activity was defined as 1 μmol of ammonia released per min at 25°C. The amount of protein was determined by commercial Bradford Protein Assay Kit with BSA as a standard. The amount of ammonia released was decided from a standard curve. The activity of uninhibited urease was defined as the control activity of 100%.
Reaction mixtures comprising 0.25 mg/mL HPU or JBU and different concentrations of Pal or AHA at the volume ratio of 1:1, were incubated at 37°C in 20 mM HEPES buffer (pH 7.5) in the absence of urea. The reactions were initiated by mixing the urease and the inhibitor. The preincubation mixture was withdrawn at 20 min and immediately transferred into the standard assay mixtures for urease residual activity determination. Inhibition rate (%) was calculated following the formula: I % = (1-activity with inhibitors/activity without inhibitors) × 100%. The IC50 was expressed as the concentration of inhibitor that decreased urease activity by 50% and calculated by plotting the percent of inhibition. The experiments were triply performed.

T2 sequence (P07374 whole entry, looked up): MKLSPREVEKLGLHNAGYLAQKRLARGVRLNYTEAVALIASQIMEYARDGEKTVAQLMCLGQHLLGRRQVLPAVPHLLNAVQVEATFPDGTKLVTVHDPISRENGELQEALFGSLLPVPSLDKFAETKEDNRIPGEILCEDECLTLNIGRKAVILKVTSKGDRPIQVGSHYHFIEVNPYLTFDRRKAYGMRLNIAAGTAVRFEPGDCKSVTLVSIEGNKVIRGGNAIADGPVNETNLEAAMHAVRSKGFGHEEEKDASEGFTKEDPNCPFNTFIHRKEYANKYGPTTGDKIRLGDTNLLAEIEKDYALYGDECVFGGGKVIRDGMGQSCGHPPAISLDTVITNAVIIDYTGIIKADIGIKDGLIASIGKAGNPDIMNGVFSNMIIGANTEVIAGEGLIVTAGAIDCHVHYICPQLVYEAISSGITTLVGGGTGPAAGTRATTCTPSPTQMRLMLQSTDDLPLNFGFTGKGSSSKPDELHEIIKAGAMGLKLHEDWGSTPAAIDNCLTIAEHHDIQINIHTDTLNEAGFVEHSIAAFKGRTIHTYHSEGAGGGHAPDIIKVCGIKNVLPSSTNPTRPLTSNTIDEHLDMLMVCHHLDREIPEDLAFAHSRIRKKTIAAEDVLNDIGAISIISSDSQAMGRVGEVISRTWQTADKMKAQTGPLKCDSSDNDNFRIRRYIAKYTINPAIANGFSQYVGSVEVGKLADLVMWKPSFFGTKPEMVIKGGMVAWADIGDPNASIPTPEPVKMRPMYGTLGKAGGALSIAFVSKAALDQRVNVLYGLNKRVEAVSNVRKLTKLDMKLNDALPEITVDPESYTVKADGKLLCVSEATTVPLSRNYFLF
T1 sequence (P14916 whole entry): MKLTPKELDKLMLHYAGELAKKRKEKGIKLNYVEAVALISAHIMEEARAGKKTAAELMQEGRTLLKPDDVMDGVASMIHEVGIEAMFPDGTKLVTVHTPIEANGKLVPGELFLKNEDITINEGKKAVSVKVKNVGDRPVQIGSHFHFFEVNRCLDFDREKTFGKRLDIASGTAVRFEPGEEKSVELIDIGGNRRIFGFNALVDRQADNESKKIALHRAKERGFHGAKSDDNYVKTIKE
T1 sequence (P69996 whole entry): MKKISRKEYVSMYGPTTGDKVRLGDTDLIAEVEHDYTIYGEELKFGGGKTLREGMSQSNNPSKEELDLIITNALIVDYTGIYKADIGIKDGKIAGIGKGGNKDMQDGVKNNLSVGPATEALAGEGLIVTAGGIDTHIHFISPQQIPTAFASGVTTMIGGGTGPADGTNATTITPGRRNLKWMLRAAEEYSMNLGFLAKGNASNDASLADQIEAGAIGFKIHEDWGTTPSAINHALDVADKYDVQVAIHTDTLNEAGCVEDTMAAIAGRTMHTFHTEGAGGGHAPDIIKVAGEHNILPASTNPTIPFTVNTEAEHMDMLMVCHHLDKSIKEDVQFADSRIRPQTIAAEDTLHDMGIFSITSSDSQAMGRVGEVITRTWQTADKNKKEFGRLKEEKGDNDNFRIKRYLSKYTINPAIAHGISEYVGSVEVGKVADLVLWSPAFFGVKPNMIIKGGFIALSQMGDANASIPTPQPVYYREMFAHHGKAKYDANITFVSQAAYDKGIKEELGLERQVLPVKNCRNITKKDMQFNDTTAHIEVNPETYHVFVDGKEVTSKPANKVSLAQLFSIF

SMILES: COc1cc2c(cc1OC)-c1cc3ccc(OC)c(OC)c3c[n+]1CC2 [Pal, Palmatine]
- Residual urease activity (percent of control) ([1]; Fig 4C HPU, BA or NaF 5 mM preincubated 20 min, Pal 0.5 mM 20 min): 23.7773% and 26.341%
- activity of enzyme inactivated by Pal in the presence of BA ([1]; HPU, 5 mM BA + 0.5 mM Pal, mean): 22.42%
- activity of enzyme inactivated by Pal in the presence of NaF ([1]; HPU, 5 mM NaF + 0.5 mM Pal, mean): 20.35%
- remaining activity at 500 µM ([1]; read-out: Residual urease activity (percent of control), Fig 4C HPU, BA or NaF 5 mM preincubated 20 min, Pal 0.5 mM 20 min): 23.1%
- Residual urease activity (percent of control) ([2]; Fig 4D JBU, BA or NaF 5 mM preincubated 20 min, Pal 0.5 mM 20 min): 36.6919% and 36.1251%
- activity of enzyme inactivated by Pal in the presence of BA ([2]; JBU, 5 mM BA + 0.5 mM Pal, mean): 33.08%
- activity of enzyme inactivated by Pal in the presence of NaF ([2]; JBU, 5 mM NaF + 0.5 mM Pal, mean): 19.91%
- remaining activity at 500 µM ([2]; read-out: Residual urease activity (percent of control), Fig 4D JBU, BA or NaF 5 mM preincubated 20 min, Pal 0.5 mM 20 min): 35.2%
- MIC ([3]; acidic conditions (pH 5.3)): 75 to 100 µg/mL
- MIC ([3]; neutral conditions (pH 7.4)): 100 to 200 µg/mL
- remaining activity at 500 µM ([4]; order (Protector+Pal)+urease): 19.8%
- remaining activity at 500 µM ([4]; order (urease+Pal)+Protector): 20%
- remaining activity at 500 µM ([4]; order (urease+Protector)+Pal): 16.7%
- remaining activity at 500 µM ([5]; order (Protector+Pal)+urease): 43.3%
- remaining activity at 500 µM ([5]; order (urease+Pal)+Protector): 38%
- remaining activity at 500 µM ([5]; order (urease+Protector)+Pal): 35.4%
- IC50 [6]: 30 µM
- Residual activity ([6]; Fig 2B JBU, Pal 0.0149062 mM, replicates): 54.1182% and 57.7693%
- Residual activity ([6]; Fig 2B JBU, Pal 0.0298125 mM, replicates): 50.3004% and 49.1799%
- Residual activity ([6]; Fig 2B JBU, Pal 0.059625 mM, replicates): 40.1092% and 41.6437%
- Residual activity ([6]; Fig 2B JBU, Pal 0.11925 mM, replicates): 37.8863% and 32.26%
- Residual activity ([6]; Fig 2B JBU, Pal 0.2385 mM, replicates): 38.5515% and 35.644%
- Residual activity ([6]; Fig 2B JBU, Pal 0.477 mM, replicates): 32.5751% and 31.4745%
- Residual activity ([6]; Fig 2B JBU, Pal 0.954 mM, replicates): 26.1588% and 18.0767%
- Residual activity ([6]; Fig 2D JBU, head prints Pal 0.00188802 mM, replicates): 95.2237% and 88.9105%
- Residual activity ([6]; Fig 2D JBU, head prints Pal 0.00377605 mM, replicates): 91.7722% and 82.8804%
- Residual activity ([6]; Fig 2D JBU, head prints Pal 0.00755209 mM, replicates): 77.2806% and 78.6217%
- Residual activity ([6]; Fig 2D JBU, head prints Pal 0.0151042 mM, replicates): 56.6996% and 59.4273%
- Residual activity ([6]; Fig 2D JBU, head prints Pal 0.0302084 mM, replicates): 37.3504% and 39.7719%
- Residual activity ([6]; Fig 2D JBU, head prints Pal 0.0604167 mM, replicates): 24.6949% and 22.6887%
- Residual activity ([6]; Fig 2D JBU, head prints Pal 0.120833 mM, replicates): 12.8879% and 13.7831%
- Residual activity ([6]; Fig 2D JBU, head prints Pal 0.241667 mM, replicates): 10.3312% and 12.3028%
- remaining activity at 14.9062 µM ([6]; read-out: Residual activity, Fig 2B JBU, Pal 0.0149062 mM, replicates): 55.1%
- remaining activity at 29.8125 µM ([6]; read-out: Residual activity, Fig 2B JBU, Pal 0.0298125 mM, replicates): 49%
- remaining activity at 59.625 µM ([6]; read-out: Residual activity, Fig 2B JBU, Pal 0.059625 mM, replicates): 45.6%
- remaining activity at 119.25 µM ([6]; read-out: Residual activity, Fig 2B JBU, Pal 0.11925 mM, replicates): 38.6%
- remaining activity at 238.5 µM ([6]; read-out: Residual activity, Fig 2B JBU, Pal 0.2385 mM, replicates): 36.2%
- remaining activity at 477 µM ([6]; read-out: Residual activity, Fig 2B JBU, Pal 0.477 mM, replicates): 25.7%
- remaining activity at 954 µM ([6]; read-out: Residual activity, Fig 2B JBU, Pal 0.954 mM, replicates): 27.1%
- remaining activity at 1.88802 µM ([6]; read-out: Residual activity, Fig 2D JBU, head prints Pal 0.00188802 mM, replicates): 94.8%
- remaining activity at 3.77605 µM ([6]; read-out: Residual activity, Fig 2D JBU, head prints Pal 0.00377605 mM, replicates): 88.2%
- remaining activity at 7.55209 µM ([6]; read-out: Residual activity, Fig 2D JBU, head prints Pal 0.00755209 mM, replicates): 75.2%
- remaining activity at 15.1042 µM ([6]; read-out: Residual activity, Fig 2D JBU, head prints Pal 0.0151042 mM, replicates): 55.4%
- remaining activity at 30.2084 µM ([6]; read-out: Residual activity, Fig 2D JBU, head prints Pal 0.0302084 mM, replicates): 36.9%
- remaining activity at 60.4167 µM ([6]; read-out: Residual activity, Fig 2D JBU, head prints Pal 0.0604167 mM, replicates): 25.4%
- remaining activity at 120.833 µM ([6]; read-out: Residual activity, Fig 2D JBU, head prints Pal 0.120833 mM, replicates): 15.7%
- remaining activity at 241.667 µM ([6]; read-out: Residual activity, Fig 2D JBU, head prints Pal 0.241667 mM, replicates): 11.3%
